Patent publication US8680073B2, “Stable hyaluronan/steroid formulation” (Genzyme Corporation, priority 2009, dated 2014)

Legend:
Assay type in all cases: physicochemical
[1] = Rheology of HA viscosupplement/steroid formulations by heat treatment; settings: formulations of HARC with the steroid, compared to control without steroid
Protocol: (§1) We conducted various experiments in which a number of steroids, both soluble and insoluble, were mixed with HA-based viscosupplements, and the heat stability of the HA/steroid formulations were evaluated at 121° C. for 30 min (simulated autoclave conditions), to achieve a bioburden inactivation of approximate 30 Fo, where Fo is the total heat applied during the cycle to achieve a desired probable inactivation ratio). Formulations were also evaluated after heating at 80° C. for 24 hours (simulated two year room temperature shelf-life).
Specifically we tested the TAH mixtures with SYNVISC® and hylastan products of Genzyme Corporation, Framingham Mass.^1 The rheological properties of the heat treated SYNVISC®/steroid and hylastan SGL-80/steroid formulations plus their controls are listed in Tables 1a and 1b, respectively, set out below. 1 Synvisc is a gel-like mixture that is made up of hylan A fluid, hylan B gel, and salt water. Hylan A and hylan B are made from a substance called hyaluronan (also known as sodium hyaluronate) from chicken combs.

[2] = Osmolality of HA viscosupplement/steroid formulations by heat treatment
Protocol: as §1
(§2) Compositions retained suitable pH and osmolarity.

[3] = pH of HA viscosupplement/steroid formulations by heat treatment
Protocol: as §1, §2

Row | Structure (SMILES) | Effect of the steroid on HARC properties after heat treatment [1] | Change in osmolality after mixing into the HA-based viscosupplements [2] | Change in pH after mixing into the HA-based viscosupplements [3]
1 | C[C@H]1C[C@H]2[C@@H]3CCC4=CC(=O)C=C[C@]4(C)[C@@]3(F)[C@@H](O)C[C@]2(C)[C@@]1(O)C(=O)COP(=O)(O)O [betamethasone phosphate] | exacerbated degradation of HARC properties after heat treatment |  | 
2 | CC(=O)OCC(=O)[C@@]1(O)[C@@H](C)C[C@H]2[C@@H]3CCC4=CC(=O)C=C[C@]4(C)[C@@]3(F)[C@@H](O)C[C@@]21C [betamethasone acetate] | interacted with HARC |  | 
3 | CC(C)(C)CC(=O)OCC(=O)[C@@]12OC(C)(C)O[C@@H]1C[C@H]1[C@@H]3CCC4=CC(=O)C=C[C@]4(C)[C@@]3(F)[C@@H](O)C[C@@]12C [TAH, triamcinolone hexacetonide] | behaved to comparably to control formulations having no steroid | no significant change | no significant change
